From patent US9018176B2, “Inducers of hematopoiesis and fetal globin production for treatment of cytopenias and hemoglobin disorders” (priority 2010, dated 2015)
“And” between values parts separate entries of the source, which are not always exact repeats. Equal entries are not always repeated. Where two headings read alike, the source gives them in different places. One block for each compound: values may come before it.

What was measured:
γ-globin [1] = test: Fetal globin (γ-globin mRNA, HbF) induction in phlebotomized anemic baboons; format: in vivo, baboons (Papio hamadryas anubis); conditions: for increase of fetal hemoglobin (HbF) protein levels above levels produced by erythroid stress alone: Desloratidine 0.6 mg/kg orally
Protocol: (§1) Studies to evaluate pharmacokinetic properties and γ-globin induction were performed in juvenile baboons (Papio hamadryas anubis). Briefly, animals were chronically phlebotomized on a daily basis to achieve stable anemia, maintaining a total hemoglobin level of 7.0 to 7.5 g/dl. Candidate compounds were administered intravenously or orally once daily in single doses for pharmacokinetic studies, or once daily in single doses, 4-5 days per week for 4-5 weeks, for pharmacodynamic studies. […] Levels of γ-globin mRNA expression and globin chain synthesis were assessed in baboons before and during treatment with test compounds. A washout period between administrations of different compounds in the same baboon was provided.
(§2) Chronically catheterized baboons were phlebotomized daily to create chronic anemia with total hemoglobin levels (Hb) between 7.0 to 7.5 g/dl which simulates the expanded erythropoiesis and anemia in sickle cell disease and beta thalassemia. Blood counts were drawn and total Hb (hemoglobin) and reticulocytes were analyzed on a hemavet analyzer. Fetal globin mRNA was analyzed by RT-PCR and proportions for f-cells were analyzed by flow cytometry. […] Desloratidine (0.6 mg/kg) was administered for 4 days following a washout period. Blood counts were obtained at least 3 days/week.
Baboons HL-25 and HD50 were phlebotomized daily to create anemia with erythroid expansion. When stably anemic, Desloratidine (0.6 mg/kg) was administered orally, fetal hemoglobin (HbF) protein levels were assayed.

γ-globin [2] = conditions: in humans, about 3-fold less than in baboons; cited from earlier work
γ-globin gene promoter = test: High throughput screen: LCR-HS2 γ-globin gene promoter EGFP reporter cell assay; format: cell-based, human; conditions: pilot screen plate, fold increase relative to NC (negative control)
Description: FIG. 1B is a schematic illustration showing an illustration of the method of the high throughput screening assay (HTS) with the cell construct comprising a locus control region (LCR) linked to the y-globin gene promoter and enhanced GFP (EGFP). A compound which activates γ-globin promoter will induce gene expression of EGFP which can be detected by a suitable detector.
A human cell-based assay which was previously used in low throughput assays, utilizing a 1.4-kilobase (kb) KpnI-BglII fragment of the HS2 of the locus control region (LCR) linked to the γ-globin gene promoter and the enhanced green fluorescent protein (EGFP) reporter gene, was adapted for high throughput screening and employed as the primary screen (FIG. 1A). Cytotoxic activity was assayed in a simultaneous counter screen. […] Several hits were immediately eliminated from further development as potential hemoglobinopathy therapeutics because of cytotoxicity (e.g., Idarubicin) or undesirable off-target effects, but nonetheless validated the HTS itself and were validated in secondary confirmatory assays as highly-potent HbF-inducers. […]

[3] = test system: γ-globin reporter cell line; test: Cytotoxicity counter screen run simultaneously with the HTS; format: cell-based, human; conditions: simultaneous counter screen of the HTS
γ-globin mRNA [4] = test: γ-globin mRNA in cultured primary human erythroid progenitors (BFU-e), real-time PCR; format: cell-based
Protocol: Erythroid progenitors were cultured from cord blood CD34+ cells. […] Each compound was tested in three different cultures. […] On day 14, RNA was extracted from cultured erythroid cells, and relative quantification PCR was performed. Briefly, cDNA was generated from equal amounts of total RNA extracted using The PerfectPure RNA Purification Kit (5 Prime Inc Gaithersburg, Md.). Real-time PCR was performed using an ABI 7500 Real-Time PCR system (Applied Biosystems, Foster City, Calif.). Levels of globin mRNA were calculated by the ΔΔCt method. […] GAPDH levels were used for standardization. Western blotting Nuclear extract of K562 cells and 14-day-old BFU-e were analyzed by electrophoresis using 5-24% gradient SDS-polyacrylamide mini-gels (BIORAD Laboratories. Hercules Calif.). Proteins in the gels were transferred to Immobilon-P membranes. Blots were then incubated with BCL11A polyclonal (Novus Biologicals, Littleton Co) or mouse monoclonal (Santa Cruz Biotechnology, Santa Cruz Calif.) antibodies, after washing blots were incubated with anti-rabbit IgG-horseradish peroxidase secondary antibody (ECL, Little Chalfont Buckinghamshire UK). BCL11A bands were detected on the X-ray film using Western Lightning Reagents (Perking Elmer Inc, Waltham, Mass.).

γ-globin mRNA [5] = test: γ-globin mRNA gene expression in K562 cells; format: cell-based; conditions: FIGS. 4A and 4B, K562 cells; Resveratrol 30 μM, desloratadine 50 μM, NSC 50 μM, Benserazine 5 μM
CB BFU-E cells = test: CB BFU-E cell proliferation (cells/colony); conditions: FIG. 8
Protocol: Fetal globin-inducing activity in human erythroid progenitors was assessed. Human erythroid progenitors were cultured from peripheral blood samples, exposed to the test compounds at varying concentrations and for varying durations and analyzed for globin chain mRNA ratios. Erythroid progenitors were cultured from cord blood CD34+ cells. Briefly, CD34+ cells in the human cord blood were separated using a Ficoll-paque density gradient. CD34+ cells were cultured in H4230 medium containing 2 mM L-glutamine, 1% Methylcellulose in Iscove's Medium, 30% Fetal Bovine Serum, 1% Bovine Serum Albumin and 10^-4 M β-mercaptoethanol. Methylcellulose H4230 medium was supplemented with EPO (0.5 U/ml) and IL-3 (20 ng/ml) to support BFU-e growth. Cells were cultured in […] mini-dishes and incubated in a humidified atmosphere containing 5% CO2, at 37° C. Different concentrations of the test compounds were added at the time the cultures were established. Each compound was tested in three different cultures. BFU-e colonies grown in mini-dishes were counted on day 14 and harvested for mRNA analysis.

[6] = test system: red blood cell production; test: Total hemoglobin and hematocrit in phlebotomized anemic baboons; format: in vivo, baboons (Papio hamadryas anubis); conditions: FIG. 12B; MS-275 3 mg/m^2 for 4 days and 2 weeks vs ST20 2 and 4 days; desloratadine 0.6 mg/kg for two days
Protocol: as §1, §2
Baboon 1509 (weight 10.9 kg) was phlebotomized to induce anemia and marrow expansion, similar to the hemoglobin disorders.

red blood cells = test: Adult human subject with alpha thalassemia trait given desloratidine; format: in vivo; conditions: 5 mg/day once per day, within 4 weeks
Protocol: Desloratidine was administered to an adult human subject with alpha thalassemia trait at a standard allergy treatment dose of 5 mg/day total, once per day. […] This is an unexpected and rapid rise in red blood cell levels in a mildly anemic subject. Accordingly, the inventors have discovered that desloratidine can be used to increase red blood cells in a subject at a dose of […] in order to increase the red blood levels in a subject in need of treatment. In some embodiments, the subject who is administered desloratidine is selected to have a low red blood count, or is anaemic or has a cytopenia as disclosed herein.

γ-globin mRNA [7] = test: γ-globin mRNA in cultured primary human erythroid progenitors (BFU-e), real-time PCR; format: cell-based; conditions: for fetal globin mRNA, Mean: vs untreated control cultures from the same subject
γ-globin [8] = test: Fetal globin (γ-globin mRNA, HbF) induction in phlebotomized anemic baboons; format: in vivo, baboons (Papio hamadryas anubis)
[9] = Desloratadine 3 uM, Cord Blood progenitors
[10] = Desloratadine 3 uM, Hemoglobin disorder progenitors

SMILES: CCC(C)(C)C(=O)[O-].[Na+] [ST20, sodium 2,2-dimethylbutyrate]
- Increase in γ-globin mRNA above baseline (γ-globin [1]; Baboon HD50, ST20 oral 150 mg/kg): 310%
- time of treatment after which fetal globin (HbF) mRNA increased (γ-globin [1]; ST-20, same baboon as desloratidine): 2 weeks
- dose required to increase HbF expression (γ-globin [1]; in baboons): 50 to 150 mg/kg
- dose required to increase HbF expression (γ-globin [2]): 20 to 50 mg/kg

- fold induction of the γ-globin promoter (γ-globin gene promoter): 8 fold
SMILES: CC(=O)[C@]1(O)Cc2c(O)c3c(c(O)c2[C@@H](O[C@H]2C[C@H](N)[C@H](O)[C@H](C)O2)C1)C(=O)c1ccccc1C3=O [Idarubicin, idarubicin]
- cytotoxicity (reason for elimination from further development) [3]: cytotoxicity

SMILES: Clc1ccc2c(c1)CCc1cccnc1C2=C1CCNCC1 [Desloratadine, 8-Chloro-6,11-dihydro-11-(4-piperidinylidene)-5H-benzo[5,6]cyclohepta[1,2-b]pyridine]
- % induction of γ-globin mRNA gene expression (γ-globin mRNA [4]; FIG. 4C, HFU-E (burst-forming units-erythroid) cells, Resveratrol 30 μM, desloratadine 50 μM, NSC 50 μM, Benserazine 5 μM): most significant % increase
- effect in increasing % of γ-globin mRNA expression (γ-globin mRNA [4]; FIG. 6, BFU-e cells, Desloratadine 3 μM, Benserazide 3 μM, NSC5397 0.6 μM): greatest effect
- % induction of γ-globin mRNA gene expression (γ-globin mRNA [5]): most significant % increase
- number of blood cells per colony (CB BFU-E cells): increase the number of blood cells per colony
- increase of fetal hemoglobin (HbF) protein levels above levels produced by erythroid stress alone (γ-globin [1]; Baboon HD50): 170%
- increase of fetal hemoglobin (HbF) protein levels above levels produced by erythroid stress alone (γ-globin [1]; Baboon HL25): 193%
- fetal globin mRNA (γ-globin [1]; Benserazide 1 or 3 mg/kg in baboon 1509, MS-275 and desloratidine): induced
- γ-globin mRNA expression in blood compared with positive control ST20 (150 mg/kg) (γ-globin [1]; FIG. 12A, MS-275 3 mg/m^2 for 4 days and 2 weeks, desloratadine 0.6 mg/kg for two days vs ST20 after 2 or 4 days): more effective
- time of treatment to detected fetal globin induction and increased HbF (γ-globin [1]; desloratidine, same baboon as ST-20): ≤ 4 days
- blood total hemoglobin (Hb) levels compared with positive control ST20 (150 mg/kg) [6]: significantly more effective
- Hemoglobin after treatment (red blood cells; increased from 10): 11.5 g/gl
- hematocrit after treatment (red blood cells; increased from 30%): 35%
- responses (cultures with induced fetal globin mRNA) (γ-globin mRNA [7]; [9]): 4/4 responses
- fetal globin mRNA, Mean (γ-globin mRNA [7]; [9]): 323 % of control
- responses (cultures with induced fetal globin mRNA) (γ-globin mRNA [7]; [10]): 3/3 responses
- fetal globin mRNA, single subjects (γ-globin mRNA [7]; Desloratadine 3 uM, Hemoglobin disorder progenitors (subjects)): 121 % of control and 123 % of control and 274.2 % of control
- fetal globin mRNA, Mean (γ-globin mRNA [7]; [10]): 175 % of control
- responses (cultures with induced fetal globin mRNA) (γ-globin mRNA [7]; Desloratadine 3 uM, Normal progenitors): 1 response
- fetal globin mRNA, Mean (γ-globin mRNA [7]; Desloratadine 3 uM, Normal progenitors (ABM), 1 response): 1098 % of control
- γ-globin mRNA induction (γ-globin mRNA [7]; cultured primary human erythroid progenitors, concentrations pharmacologically achievable in humans): up to 6 fold
- Increase in γ-globin mRNA above baseline (γ-globin [8]; Baboon HD50, Desloratadine oral 0.55 mg/kg): 350%
- Increase in γ-globin mRNA above baseline (γ-globin [8]; Baboon HD50, Desloratadine oral 0.55 mg/kg, listed as Desloratidine): 350%
- Increase in γ-globin mRNA above baseline (γ-globin [8]; Baboon HL25, Desloratadine oral 0.55 mg/kg): 386%
- Increase in γ-globin mRNA above baseline (γ-globin [8]; Baboon HL25, Desloratadine oral 0.55 mg/kg, listed as Desloratidine): 386%
